“Also recorded” adds a separate entry of the source. Like-named read-outs stand apart in the source and are kept apart here.
Key:
[1] = pig, in vivo; cited from earlier work
methionine synthase [2] = format: biochemical, baby hamster
[3] = test system: Malpighian tubules of D. melanogaster; format: cell-based
baby chicks = conditions: in vivo, cited from earlier work
Chinese hamster cells = format: cell-based
transcobalamin II = conditions: cited from earlier work
methionine synthase [4] = format: cell-based, baby hamster
[5] = test system: Chinese hamster cells (cytochrome c oxidase); format: cell-based
[6] = test system: VASP phosphorylation in CS-54 vascular smooth muscle cells; format: cell-based, rat
[7] = test system: Malpighian tubules of D. melanogaster; conditions: in vivo
[8] = test system: NO (nitrite plus nitrate), CS-54 cells; format: cell-based, rat
D. melanogaster [9] = conditions: in vivo
[10] = test system: BHK, CS-54, and C6 cells, human foreskin fibroblasts and HUVECs; conditions: cited from earlier work
rats = conditions: rat, in vivo, sc; cited from earlier work
methylmalonyl-CoA mutase [11] = format: cell-based, baby hamster
[12] = rabbit, in vivo, cited from earlier work
mouse leukemic cells = conditions: cited from earlier work
[13] = test system: NO (nitrite and nitrate) in Malpighian tubule medium; format: cell-based, D. melanogaster
[14] = test system: BHK, CS-54, and C6 cells, human foreskin fibroblasts and HUVECs
haptocorrin = haptocorrin (Homo sapiens, UniProt P20061); conditions: cited from earlier work
[15] = test system: Malpighian tubules of D. melanogaster; format: cell-based; remark: listed apart in the source
D. melanogaster [16] = conditions: in vivo; remark: listed apart in the source
methylmalonyl-CoA mutase [17] = format: biochemical, baby hamster
[18] = test system: human monocytes and lymphocytes; conditions: cited from earlier work
[19] = test system: NO (nitrite plus nitrate), C6 cells; format: cell-based, rat
[20] = test system: VASP phosphorylation in rat C6 glioma cells; format: cell-based
D. melanogaster [21] = conditions: in vivo; remark: listed apart in the source
[22] = biological target: methionine synthase apoenzyme (Homo sapiens, UniProt Q99707); conditions: cited from earlier work
[23] = biological target: apoenzyme of methylmalonyl-CoA mutase (Propionibacterium freudenreichii subsp. shermanii, UniProt P11653); conditions: cited from earlier work
[24] = human, in vivo, iv; cited from earlier work

Sequence of methionine synthase apoenzyme (Q99707 whole entry): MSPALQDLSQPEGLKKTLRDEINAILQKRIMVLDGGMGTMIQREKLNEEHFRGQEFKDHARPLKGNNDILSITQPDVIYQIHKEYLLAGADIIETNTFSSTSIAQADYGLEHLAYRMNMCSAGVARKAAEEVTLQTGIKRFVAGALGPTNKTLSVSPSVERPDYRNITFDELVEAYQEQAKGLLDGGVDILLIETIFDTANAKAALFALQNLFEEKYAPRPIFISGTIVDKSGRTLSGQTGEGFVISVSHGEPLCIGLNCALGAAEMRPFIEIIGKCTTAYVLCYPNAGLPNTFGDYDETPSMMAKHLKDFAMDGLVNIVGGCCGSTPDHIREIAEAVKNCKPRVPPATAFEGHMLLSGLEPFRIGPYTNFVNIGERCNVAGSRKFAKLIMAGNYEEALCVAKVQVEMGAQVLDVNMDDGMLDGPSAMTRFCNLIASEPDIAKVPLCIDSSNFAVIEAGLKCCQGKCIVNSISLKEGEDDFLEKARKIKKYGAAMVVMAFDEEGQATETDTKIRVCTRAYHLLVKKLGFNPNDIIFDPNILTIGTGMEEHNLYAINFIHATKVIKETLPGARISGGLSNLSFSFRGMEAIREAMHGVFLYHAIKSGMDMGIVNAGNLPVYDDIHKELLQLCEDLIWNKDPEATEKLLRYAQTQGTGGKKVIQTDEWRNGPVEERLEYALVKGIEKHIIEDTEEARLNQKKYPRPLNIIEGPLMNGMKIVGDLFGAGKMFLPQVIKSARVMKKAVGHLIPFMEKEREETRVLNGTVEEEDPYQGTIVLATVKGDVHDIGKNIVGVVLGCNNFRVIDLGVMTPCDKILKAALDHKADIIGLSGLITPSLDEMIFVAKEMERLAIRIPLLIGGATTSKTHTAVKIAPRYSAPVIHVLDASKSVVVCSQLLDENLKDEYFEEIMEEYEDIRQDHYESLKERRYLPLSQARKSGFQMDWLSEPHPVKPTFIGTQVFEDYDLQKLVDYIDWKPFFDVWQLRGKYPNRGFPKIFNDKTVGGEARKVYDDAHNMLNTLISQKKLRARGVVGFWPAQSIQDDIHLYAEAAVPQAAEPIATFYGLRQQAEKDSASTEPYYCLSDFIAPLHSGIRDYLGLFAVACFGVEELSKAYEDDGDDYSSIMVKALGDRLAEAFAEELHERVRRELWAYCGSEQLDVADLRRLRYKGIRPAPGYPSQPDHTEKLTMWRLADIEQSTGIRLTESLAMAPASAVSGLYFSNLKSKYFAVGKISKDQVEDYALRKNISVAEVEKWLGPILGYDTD
Sequence of haptocorrin (P20061 24-433): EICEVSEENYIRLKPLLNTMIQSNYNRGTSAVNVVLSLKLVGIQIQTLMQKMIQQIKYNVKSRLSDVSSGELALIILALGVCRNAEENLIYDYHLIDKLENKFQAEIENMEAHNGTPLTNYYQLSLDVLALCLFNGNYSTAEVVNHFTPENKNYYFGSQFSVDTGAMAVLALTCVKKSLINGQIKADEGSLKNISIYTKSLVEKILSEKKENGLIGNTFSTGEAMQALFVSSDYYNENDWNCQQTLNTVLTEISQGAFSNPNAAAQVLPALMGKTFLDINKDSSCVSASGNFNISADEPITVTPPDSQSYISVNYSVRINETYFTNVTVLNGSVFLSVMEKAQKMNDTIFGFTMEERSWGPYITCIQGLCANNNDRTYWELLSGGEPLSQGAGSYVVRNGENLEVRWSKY
Sequence of apoenzyme of methylmalonyl-CoA mutase (P11652 2-638): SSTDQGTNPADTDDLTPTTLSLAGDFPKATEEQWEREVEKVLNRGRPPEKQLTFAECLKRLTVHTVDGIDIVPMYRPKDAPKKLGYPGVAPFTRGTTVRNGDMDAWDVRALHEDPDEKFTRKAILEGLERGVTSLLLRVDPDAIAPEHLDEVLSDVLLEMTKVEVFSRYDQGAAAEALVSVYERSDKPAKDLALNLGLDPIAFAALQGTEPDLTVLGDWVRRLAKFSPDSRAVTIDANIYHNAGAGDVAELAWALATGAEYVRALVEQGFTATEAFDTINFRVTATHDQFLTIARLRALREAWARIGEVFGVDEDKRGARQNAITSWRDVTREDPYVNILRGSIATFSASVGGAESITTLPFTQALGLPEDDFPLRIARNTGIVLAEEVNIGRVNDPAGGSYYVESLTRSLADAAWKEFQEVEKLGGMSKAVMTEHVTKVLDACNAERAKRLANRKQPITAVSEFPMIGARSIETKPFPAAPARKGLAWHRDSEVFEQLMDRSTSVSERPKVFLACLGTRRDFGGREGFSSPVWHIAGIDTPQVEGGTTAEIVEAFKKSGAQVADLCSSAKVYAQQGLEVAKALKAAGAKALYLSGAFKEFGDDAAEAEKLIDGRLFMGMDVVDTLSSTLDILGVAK
Sequence of apoenzyme of methylmalonyl-CoA mutase (P11653 2-728): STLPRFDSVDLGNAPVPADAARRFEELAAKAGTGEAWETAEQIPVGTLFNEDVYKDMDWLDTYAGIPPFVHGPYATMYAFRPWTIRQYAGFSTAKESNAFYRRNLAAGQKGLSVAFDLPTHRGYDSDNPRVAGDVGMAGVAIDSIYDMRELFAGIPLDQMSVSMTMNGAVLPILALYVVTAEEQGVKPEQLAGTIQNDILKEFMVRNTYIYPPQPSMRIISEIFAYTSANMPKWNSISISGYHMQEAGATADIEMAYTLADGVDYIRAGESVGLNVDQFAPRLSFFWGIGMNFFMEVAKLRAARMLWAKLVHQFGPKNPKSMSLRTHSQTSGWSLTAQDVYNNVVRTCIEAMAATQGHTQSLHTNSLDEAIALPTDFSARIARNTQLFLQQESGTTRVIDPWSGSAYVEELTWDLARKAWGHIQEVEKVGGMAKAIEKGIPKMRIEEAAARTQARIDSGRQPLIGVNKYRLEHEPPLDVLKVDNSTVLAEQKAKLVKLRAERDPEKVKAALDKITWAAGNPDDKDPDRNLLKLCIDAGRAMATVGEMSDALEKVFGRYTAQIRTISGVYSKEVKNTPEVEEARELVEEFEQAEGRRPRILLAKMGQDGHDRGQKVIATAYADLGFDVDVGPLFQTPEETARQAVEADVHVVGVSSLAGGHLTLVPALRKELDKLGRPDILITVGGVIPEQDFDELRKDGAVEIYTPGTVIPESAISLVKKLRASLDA

In the case of `C/C1=C2/[N-][C@H]([C@H](CC(N)=O)[C@@]2(C)CCC(=O)NC[C@@H](C)O)[C@]2(C)N=C(/C(C)=C3N=C(/C=C4N=C1[C@@H](CCC(N)=O)C\4(C)C)[C@@H](CCC(N)=O)[C@]\3(C)CC(N)=O)[C@@H](CCC(N)=O)[C@]2(C)CC(N)=O.[Co+3]` [cobinamide], the “absorption across the ileum” value [1] is given as “can be absorbed across the ileum independently of intrinsic factor”, the “methionine synthase activity in BHK cell extracts” value (methionine synthase [2]) is given as “no effect” and the basal secretion rates [3] is given as “no effect on basal secretion rates”. For the same compound, the “resistance to KCN inhibition of tubular secretion” value [3] was “significant resistance to the inhibitory effect of KCN; also recorded: almost complete reversal of the toxic effects of KCN”, the tubular secretion rates [3] was “tubular secretion rates increased significantly” and the “growth of baby chicks” value (baby chicks; po) was “did inhibit chick growth”. The “growth of baby chicks” value (baby chicks) was “no effect on the growth of baby chicks”, the “growth rate of KCN-treated cells” value (Chinese hamster cells) was “restored their growth rate to normal” and the “binding to transcobalamin II” value (transcobalamin II) was “binds poorly”. For the same compound, the “decrease of [14C]-formate incorporation into purine nucleotides” value (methionine synthase [4]) was “about 50%”, the “inhibition of in vivo methionine synthase activity” value (methionine synthase [4]) was “minimal inhibition” and the “effect on oxygen consumption” value [5] was “Neither cobinamide nor cobalamin alone had any effect on oxygen consumption”. For the same compound, the “recovery of respiration, of control non-KCN-treated cells” value [5] was “about 75%”, the “A23187-induced VASP phosphorylation” value [6] was “significantly attenuated this effect” and the “reduction of LPS-stimulated tubular secretion rates compared to control flies” value [7] was “about 50%”. For the same compound, the “nitrite plus nitrate concentrations in medium” value [8] was “significant decrease in the nitrite plus nitrate concentrations”, the “detrimental effect on the flies” value (D. melanogaster [9]) was “no apparent detrimental effect” and the toxicity to flies (D. melanogaster [9]) was “No toxicity”. The “not toxic to cultured mammalian cells up to” value [10] was “at least 50 μM”, the “inhibition of methionine synthase or methylmalonyl-CoA mutase” value (rats) was “nor did cobinamide inhibit the two mammalian cobalamin-dependent enzymes” and the toxic effects (rats) was “no apparent toxic effects”. The “decrease of [14C]-propionic acid incorporation into protein” value (methylmalonyl-CoA mutase [11]) was “about 50%”, the “release from the liver, t?” value ([12]; iv) was roughly 150 h and the liver retention [12] was “retained more by the liver than cobalamin”. For the same compound, the growth inhibitory effects (mouse leukemic cells) was “no growth inhibitory effects”, the “reduction of combined nitrite and nitrate” value [13] was “about 50%” and the “concentration at which toxicity began to be observed” value [14] was “about 50 μM”. The binding to haptocorrin (haptocorrin) was “binds tightly”, the “binding to serum albumin” value (serum albumin) was “binds tightly to serum albumin” and the “rate of tubular secretion” value [15] was “rapidly reduced tubular secretion, returning rates near to the basal state”. The “HCN exposure time without any significant increase in mortality” value (D. melanogaster [16]) was “up to 15 min”, the flies salvaged (D. melanogaster [16]) was 94% and the flies survived (D. melanogaster [16]) was 65%. The “flies surviving / recovered by 1 h” value (D. melanogaster [16]) was “approximately 90%”, the mortality rate (D. melanogaster [16]) was 18% and the “outcome of prolonged HCN exposure” value (D. melanogaster [16]) was “death of all flies”. For the same compound, the prevention of death (D. melanogaster [16]) was “as effective in preventing death under these conditions as it was when administered prior to cyanide exposure”, the “methylmalonyl-CoA mutase activity in BHK cell extracts” value (methylmalonyl-CoA mutase [17]) was “no effect” and the growth inhibitory effects [18] was “no growth inhibitory effects”. The “nitrite plus nitrate concentrations in medium” value [19] was “significant decrease in the nitrite plus nitrate concentrations”, the “8-pCPT-cGMP-induced VASP phosphorylation” value [20] was “no effect” and the “PAPA-NONOate-induced VASP phosphorylation” value [20] was “prevented the increase in VASP phosphorylation; also recorded: prevented increases in VASP phosphorylation”. For the same compound, the survival rate (D. melanogaster [21]) was 65% and the “restoration of methionine synthase apoenzyme activity” value [22] was “can restore the methionine synthase apoenzyme to full activity”.
For 5′-deoxyadenosyl-cobinamide, the “restoring function to the apoenzyme of methylmalonyl-CoA mutase” value [23] is given as “inactive”.
For `C/C1=C2/[N-][C@H]([C@H](CC(N)=O)[C@@]2(C)CCC(=O)NC[C@H](C)OP(=O)([O-])O[C@H]2[C@@H](O)[C@@H](n3cnc4cc(C)c(C)cc43)O[C@@H]2CO)[C@]2(C)N=C(/C(C)=C3N=C(/C=C4N=C1[C@@H](CCC(N)=O)C\4(C)C)[C@@H](CCC(N)=O)[C@]\3(C)CC(N)=O)[C@@H](CCC(N)=O)[C@]2(C)CC(N)=O.[Co+2]` (stereo in doubt) [cobalamin, reference compound], the basal secretion rates [3] was “no effect on basal secretion rates”, the “resistance to KCN inhibition of tubular secretion” value [3] was “significant resistance to the inhibitory effect of KCN; also recorded: intermediate degree of resistance to KCN” and the “prevention of cobinamide effect on [14C]-formate incorporation” value (methionine synthase [4]) was “completely prevented”. For the same compound, the “effect on oxygen consumption” value [5] was “Neither cobinamide nor cobalamin alone had any effect on oxygen consumption”, the “recovery of respiration, of control non-KCN-treated cells” value [5] was 42% and the toxicity to flies (D. melanogaster [9]) was “No toxicity”. The “prevention of cobinamide effect on [14C]-propionic acid incorporation” value (methylmalonyl-CoA mutase [11]) was “completely prevented”, the “effect on NO scavenging by cobinamide, tubular fluid secretion” value [15] was “no effect on NO scavenging by cobinamide” and the flies salvaged (D. melanogaster [16]) was 62%. The flies survived (D. melanogaster [16]) was 44%, the mortality rate (D. melanogaster [16]) was 55% and the “mean peak serum concentration” value [24] was “about 650 μM”. For the same compound, the “effect on NO scavenging by cobinamide, VASP phosphorylation” value [20] was “no effect on NO scavenging by cobinamide” and the survival rate (D. melanogaster [21]) was 38%.

— patent publication US8431561B2 (priority 2004, dated 2013)
